This is an account of results in ChEMBL document CHEMBL5291721, “A preclinical secondary pharmacology resource illuminates target-adverse drug reaction associations of marketed drugs” (Nat Commun, 2023).

A value given as a limit tells only on which side of the number the result lay.

For orientation: AC50 means the concentration giving half of the maximal activity seen. Lower therefore signals greater potency.

Assay [1] concerns the target T1, Beta-2 adrenergic receptor (Homo sapiens, UniProt P07550). The format is functional, cell-based.
The target of assay [2] is T1, Beta-2 adrenergic receptor.
The target in assay [3] is Vasopressin V2 receptor (Homo sapiens, UniProt P30518).
Assay [4] addresses T2, B2 bradykinin receptor (Homo sapiens, UniProt P30411).
T2 sequence (P30411 whole entry): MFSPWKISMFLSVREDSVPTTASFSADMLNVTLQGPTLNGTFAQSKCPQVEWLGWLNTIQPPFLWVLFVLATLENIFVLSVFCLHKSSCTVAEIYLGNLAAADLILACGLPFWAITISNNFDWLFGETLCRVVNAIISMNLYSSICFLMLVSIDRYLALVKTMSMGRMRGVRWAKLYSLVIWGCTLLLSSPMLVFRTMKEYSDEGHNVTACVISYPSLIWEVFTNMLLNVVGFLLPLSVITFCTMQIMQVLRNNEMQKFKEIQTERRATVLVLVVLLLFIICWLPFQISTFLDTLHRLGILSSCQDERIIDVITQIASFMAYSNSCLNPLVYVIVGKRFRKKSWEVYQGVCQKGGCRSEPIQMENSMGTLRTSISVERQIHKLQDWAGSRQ

Assay [5] concerns the target T3, Glucocorticoid receptor (Homo sapiens, UniProt P04150).
T3 sequence (P04150 whole entry): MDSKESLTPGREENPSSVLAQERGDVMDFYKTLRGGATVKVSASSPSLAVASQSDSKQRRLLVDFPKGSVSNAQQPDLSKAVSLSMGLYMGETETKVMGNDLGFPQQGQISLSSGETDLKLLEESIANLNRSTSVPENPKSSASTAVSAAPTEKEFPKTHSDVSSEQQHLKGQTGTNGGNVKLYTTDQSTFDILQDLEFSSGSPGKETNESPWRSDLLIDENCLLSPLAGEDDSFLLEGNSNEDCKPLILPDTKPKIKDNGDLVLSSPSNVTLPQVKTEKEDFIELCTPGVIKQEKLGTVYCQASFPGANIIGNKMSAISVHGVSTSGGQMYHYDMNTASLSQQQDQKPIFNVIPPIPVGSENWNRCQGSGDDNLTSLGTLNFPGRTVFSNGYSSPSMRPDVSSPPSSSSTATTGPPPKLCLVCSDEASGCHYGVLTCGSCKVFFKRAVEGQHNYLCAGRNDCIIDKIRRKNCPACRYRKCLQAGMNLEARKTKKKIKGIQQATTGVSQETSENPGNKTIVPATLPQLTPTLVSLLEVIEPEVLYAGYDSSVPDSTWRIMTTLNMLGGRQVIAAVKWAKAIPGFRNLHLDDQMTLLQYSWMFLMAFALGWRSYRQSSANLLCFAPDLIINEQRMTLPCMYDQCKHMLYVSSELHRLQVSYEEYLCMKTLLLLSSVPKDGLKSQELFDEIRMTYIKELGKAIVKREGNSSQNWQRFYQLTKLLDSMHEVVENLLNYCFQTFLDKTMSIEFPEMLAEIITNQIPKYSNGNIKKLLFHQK

The target in assay [6] is Mu-type opioid receptor (Homo sapiens, UniProt P35372).
The target of assay [7] is T4, Alpha-1A adrenergic receptor (Homo sapiens, UniProt P35348).
T4 sequence (P35348 whole entry): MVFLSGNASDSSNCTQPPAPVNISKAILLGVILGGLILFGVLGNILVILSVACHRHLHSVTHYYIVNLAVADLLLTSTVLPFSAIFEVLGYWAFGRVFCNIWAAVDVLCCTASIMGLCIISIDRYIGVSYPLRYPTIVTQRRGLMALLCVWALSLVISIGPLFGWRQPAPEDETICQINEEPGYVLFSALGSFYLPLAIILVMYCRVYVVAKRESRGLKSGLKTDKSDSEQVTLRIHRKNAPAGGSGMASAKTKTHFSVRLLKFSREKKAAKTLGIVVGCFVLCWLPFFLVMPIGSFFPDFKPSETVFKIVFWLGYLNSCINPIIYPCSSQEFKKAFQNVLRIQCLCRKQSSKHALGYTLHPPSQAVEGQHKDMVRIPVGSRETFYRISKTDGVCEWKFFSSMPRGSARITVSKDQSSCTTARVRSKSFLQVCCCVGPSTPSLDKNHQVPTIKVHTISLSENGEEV
The format is functional, cell-based.

The target of assay [8] is T5, Sodium-dependent serotonin transporter (Homo sapiens, UniProt P31645).
Assay [9] has as its target D(1A) dopamine receptor (Homo sapiens, UniProt P21728).
In assay [10] the target is T6, Estrogen receptor (Homo sapiens, UniProt P03372).
T6 sequence (P03372 whole entry): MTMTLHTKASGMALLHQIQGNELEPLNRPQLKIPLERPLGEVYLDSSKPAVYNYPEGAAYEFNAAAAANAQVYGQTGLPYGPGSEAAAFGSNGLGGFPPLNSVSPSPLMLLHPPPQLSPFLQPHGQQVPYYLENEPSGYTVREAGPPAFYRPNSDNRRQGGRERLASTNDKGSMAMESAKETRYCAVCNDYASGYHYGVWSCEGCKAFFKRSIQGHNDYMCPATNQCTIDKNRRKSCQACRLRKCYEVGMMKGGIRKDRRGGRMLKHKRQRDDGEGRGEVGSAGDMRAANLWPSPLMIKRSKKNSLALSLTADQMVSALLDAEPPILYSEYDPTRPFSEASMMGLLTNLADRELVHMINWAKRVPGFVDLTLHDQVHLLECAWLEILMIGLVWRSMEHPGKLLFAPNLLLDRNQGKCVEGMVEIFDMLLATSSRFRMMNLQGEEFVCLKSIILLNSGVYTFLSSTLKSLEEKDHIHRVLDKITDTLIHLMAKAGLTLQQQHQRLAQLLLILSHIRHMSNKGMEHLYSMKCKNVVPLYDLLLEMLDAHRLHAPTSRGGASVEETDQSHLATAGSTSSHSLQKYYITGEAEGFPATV

For assay [11], the target named is T5, Sodium-dependent serotonin transporter. The source holds these as a separate data set.
Also: assay procedure not described here.

T1 sequence (P07550 whole entry): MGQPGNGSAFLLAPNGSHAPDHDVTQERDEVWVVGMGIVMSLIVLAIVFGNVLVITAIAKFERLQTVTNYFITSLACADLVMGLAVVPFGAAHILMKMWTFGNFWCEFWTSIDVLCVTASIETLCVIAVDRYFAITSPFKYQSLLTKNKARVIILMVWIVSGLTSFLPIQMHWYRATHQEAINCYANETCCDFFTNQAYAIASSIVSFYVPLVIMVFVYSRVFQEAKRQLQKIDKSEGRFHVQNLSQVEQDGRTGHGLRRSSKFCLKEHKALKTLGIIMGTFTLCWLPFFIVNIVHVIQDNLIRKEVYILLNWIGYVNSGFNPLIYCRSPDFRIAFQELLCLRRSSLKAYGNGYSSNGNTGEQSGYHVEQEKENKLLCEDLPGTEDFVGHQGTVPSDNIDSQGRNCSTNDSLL
Sequence of D(1A) dopamine receptor (P21728 whole entry): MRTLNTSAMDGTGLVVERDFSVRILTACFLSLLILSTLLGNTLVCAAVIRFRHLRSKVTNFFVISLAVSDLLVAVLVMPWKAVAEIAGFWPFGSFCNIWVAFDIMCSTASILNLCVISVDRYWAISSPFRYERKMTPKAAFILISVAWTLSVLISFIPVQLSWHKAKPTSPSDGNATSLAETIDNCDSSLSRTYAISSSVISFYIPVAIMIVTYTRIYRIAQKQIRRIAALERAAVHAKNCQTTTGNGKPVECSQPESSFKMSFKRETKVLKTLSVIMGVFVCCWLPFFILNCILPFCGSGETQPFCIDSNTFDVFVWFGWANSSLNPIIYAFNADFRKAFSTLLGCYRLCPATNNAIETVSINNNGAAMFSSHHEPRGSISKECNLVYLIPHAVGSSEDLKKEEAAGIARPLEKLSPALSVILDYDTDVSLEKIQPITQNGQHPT
Sequence of Vasopressin V2 receptor (P30518 whole entry): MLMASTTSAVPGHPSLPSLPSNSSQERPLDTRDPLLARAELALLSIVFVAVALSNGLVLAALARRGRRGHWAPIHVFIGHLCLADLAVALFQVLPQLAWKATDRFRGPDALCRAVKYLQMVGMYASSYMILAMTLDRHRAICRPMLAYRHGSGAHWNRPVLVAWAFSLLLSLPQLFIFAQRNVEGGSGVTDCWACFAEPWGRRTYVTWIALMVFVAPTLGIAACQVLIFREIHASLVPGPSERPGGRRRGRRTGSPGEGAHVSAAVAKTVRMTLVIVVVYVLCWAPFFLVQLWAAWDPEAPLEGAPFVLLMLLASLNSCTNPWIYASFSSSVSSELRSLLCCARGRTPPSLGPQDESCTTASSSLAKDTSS
Sequence of Mu-type opioid receptor (P35372 whole entry): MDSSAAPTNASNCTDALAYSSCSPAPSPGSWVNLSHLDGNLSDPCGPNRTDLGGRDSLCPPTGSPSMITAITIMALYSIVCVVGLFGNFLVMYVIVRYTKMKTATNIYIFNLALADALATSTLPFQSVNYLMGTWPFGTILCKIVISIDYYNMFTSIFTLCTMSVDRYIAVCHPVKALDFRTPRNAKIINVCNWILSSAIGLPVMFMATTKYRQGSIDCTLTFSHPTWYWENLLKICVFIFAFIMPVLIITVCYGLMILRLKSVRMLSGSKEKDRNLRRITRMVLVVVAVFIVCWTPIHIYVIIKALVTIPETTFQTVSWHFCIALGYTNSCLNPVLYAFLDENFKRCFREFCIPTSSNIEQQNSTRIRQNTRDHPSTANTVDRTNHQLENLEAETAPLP
T5 sequence (P31645 whole entry): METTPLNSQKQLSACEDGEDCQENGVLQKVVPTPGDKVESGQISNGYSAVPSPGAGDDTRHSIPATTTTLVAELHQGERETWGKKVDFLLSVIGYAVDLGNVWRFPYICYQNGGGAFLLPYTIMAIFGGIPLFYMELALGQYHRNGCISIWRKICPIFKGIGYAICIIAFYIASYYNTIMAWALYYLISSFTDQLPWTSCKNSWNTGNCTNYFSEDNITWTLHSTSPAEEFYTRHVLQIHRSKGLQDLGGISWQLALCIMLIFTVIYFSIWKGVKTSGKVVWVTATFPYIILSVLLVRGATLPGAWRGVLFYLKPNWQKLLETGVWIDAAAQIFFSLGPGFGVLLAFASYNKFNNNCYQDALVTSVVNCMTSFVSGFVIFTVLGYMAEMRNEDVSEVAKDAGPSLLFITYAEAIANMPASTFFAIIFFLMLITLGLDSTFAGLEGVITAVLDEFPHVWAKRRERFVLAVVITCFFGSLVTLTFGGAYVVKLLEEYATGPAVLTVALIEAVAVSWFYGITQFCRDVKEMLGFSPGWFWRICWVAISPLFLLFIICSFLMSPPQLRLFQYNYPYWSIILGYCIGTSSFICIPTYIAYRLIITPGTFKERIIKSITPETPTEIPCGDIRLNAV

Regarding `CCOC(=O)[C@H](CCc1ccccc1)N[C@@H](C)C(=O)N1[C@H](C(=O)O)C[C@@H]2CCC[C@@H]21`, the AC50 in assay [1] was above 30 µM; in assay [2], above 10 µM; in [3] it was above 30 µM; in assay [4], above 30 µM; in assay [5] it was above 30 µM; in assay [6], above 30 µM. In assay [7], this compound had a half-maximal activity concentration (AC50) above 30 µM.

As to `Nc1nc(NC2CC2)c2ncn([C@H]3C=C[C@@H](CO)C3)c2n1` [ABACAVIR], the AC50 in [1], in assay [3], in assay [4], in assay [5], in assay [8] and in assay [7] was above 30 µM in each case.

Turning to `CC(=O)Nc1ccc(O)cc1` [ACETAMINOPHEN], the AC50 in assay [1], in assay [6] and in assay [7] was above 30 µM throughout.

`CC(C)C[C@H]1C(=O)N2CCC[C@H]2[C@]2(O)O[C@](NC(=O)[C@@H]3C=C4c5cccc6[nH]c(Br)c(c56)C[C@H]4N(C)C3)(C(C)C)C(=O)N12` [BROMOCRIPTINE]: the AC50 in assay [1] was above 30 µM; in [2], 8.4 µM; in assay [3], above 30 µM; in [4] it was above 30 µM; in [9] it was 2.37 µM; in [5], above 30 µM. For the same compound, the concentration at half-maximal activity (AC50) in [6] worked out at 14 µM.

As to `Cc1ccc(-c2cc(C(F)(F)F)nn2-c2ccc(S(N)(=O)=O)cc2)cc1` [CELECOXIB], the AC50 was above 30 µM in assay [1]; above 10 µM in assay [2]; above 30 µM in assay [3]; above 30 µM in [4]; above 30 µM in assay [5]; above 30 µM in assay [6].

For the compound `C[C@]12CCC(=O)C=C1CC[C@@H]1[C@@H]2[C@@H](O)C[C@@]2(C)[C@H]1CC[C@]2(O)C(=O)CO` [HYDROCORTISONE], the AC50 in assay [1] is above 30 µM; in assay [2], above 10 µM; in assay [3], above 30 µM; in [4] it was above 30 µM; in assay [6], above 30 µM; in assay [7] it was above 30 µM.

With `c1ccc([C@H]2CN3CCSC3=N2)cc1` [LEVAMISOLE], the AC50 in assay [1], in assay [2], in assay [6] and in assay [7] was above 30 µM each time.

In the case of `N[C@@H](C(=O)N[C@@H]1C(=O)N2C(C(=O)O)=C(Cl)CC[C@H]12)c1ccccc1` [LORACARBEF ANHYDROUS], the concentration at half-maximal activity (AC50) in assay [9], in assay [10] and in [11] was above 30 µM each time.

For `C[C@H]1CNCCc2ccc(Cl)cc21` [LORCASERIN], the AC50 in [1], in assay [6] and in [7] was above 30 µM in each case.

`OCCN1C[C@H](O)[C@@H](O)[C@H](O)[C@H]1CO` [MIGLITOL]: the AC50 in [9], in [10] and in assay [11] was above 30 µM each time.

In the case of `CC(=O)N[C@@H]1[C@@H](O)[C@H](O)[C@@H](CO)O[C@H]1O` [N-ACETYLGLUCOSAMINE], the AC50 in [9], in assay [10] and in assay [11] was above 30 µM in each case.

Turning to `O=C(CCNNC(=O)c1ccncc1)NCc1ccccc1` [NIALAMIDE], the half-maximal activity concentration (AC50) in assay [9], in assay [10] and in [11] was above 30 µM each time.

As for `Cc1nc([N+](=O)[O-])cn1-c1ccc([N+](=O)[O-])cc1` [NITREFAZOLE], the concentration at half-maximal activity (AC50) in [1], in assay [3], in assay [4], in assay [5], in assay [8] and in assay [7] was above 30 µM in each case.

Regarding `CC[C@H]1[C@@H](O)[C@@H]2[C@H](CC[C@]3(C)[C@@H]([C@H](C)CCC(=O)O)CC[C@@H]23)[C@@]2(C)CC[C@@H](O)C[C@@H]12` [OBETICHOLIC ACID], the concentration at half-maximal activity (AC50) in assay [2], in [3], in [4], in [9], in assay [10] and in assay [5] was above 30 µM in each case. Moreover, the half-maximal activity concentration (AC50) is above 30 µM in [11], above 30 µM in assay [8] and 6.3 µM in [7].

With `CC[N+]1(C)[C@@H]2CC(OC(=O)[C@H](CO)c3ccccc3)C[C@H]1[C@@H]1O[C@@H]12` (stereo partly drawn) [OXITROPIUM], the AC50 in assay [9], in assay [10] and in assay [11] was above 30 µM in each case.

Consider `CC(C)(C)NC[C@H](O)COc1ccccc1C1CCCC1` [PENBUTOLOL], for which the AC50 in [9] is 27.8 µM; in assay [10] it was above 30 µM; in assay [11], 5.53 µM.

Turning to `CCCN1C[C@H](CSC)C[C@@H]2c3cccc4[nH]cc(c34)C[C@H]21` [PERGOLIDE], the AC50 is above 30 µM in [1]; above 10 µM in assay [2]; above 30 µM in [3]; above 30 µM in assay [4]; above 30 µM in assay [5]; above 30 µM in assay [6].

Turning to `C1CCC(C(CC2CCCCN2)C2CCCCC2)CC1` (stereo not drawn) [PERHEXILINE], the figures for the concentration at half-maximal activity (AC50) in [1], in assay [6] and in assay [7] were above 30 µM, 16 µM and above 10 µM, respectively.

In the case of `CN(C)S(=O)(=O)c1ccc2c(c1)N(CCCN1CCC(CCO)CC1)c1ccccc1S2` [PIPOTIAZINE], the AC50 was 0.0201 µM in [9], above 30 µM in [10] and above 30 µM in [11].

Consider `CCC(=O)NCC[C@@H]1CCc2ccc3c(c21)CCO3` [RAMELTEON], for which the half-maximal activity concentration (AC50) in assay [9], in assay [10] and in assay [11] was above 30 µM throughout.

Regarding `Cc1c(C(=O)NN2CCCCC2)nn(-c2ccc(Cl)cc2Cl)c1-c1ccc(Cl)cc1` [RIMONABANT], the concentration at half-maximal activity (AC50) in assay [1] is above 30 µM; in assay [2] it was above 10 µM; in assay [3], above 30 µM; in [4] it was above 30 µM; in assay [5], above 30 µM; in assay [8], above 30 µM. The compound also had a concentration at half-maximal activity (AC50) in assay [7] of 11 µM.

As to `N[C@@H]1[C@H]2CN(c3nc4c(cc3F)c(=O)c(C(=O)O)cn4-c3ccc(F)cc3F)C[C@@H]12` [TROVAFLOXACIN], the AC50 in [1], in [6] and in [7] was above 30 µM in each case.

Turning to `CCCCCCOc1nsnc1C1=CCCN(C)C1` [XANOMELINE], the results for the AC50 in [9], in assay [10] and in assay [11] were 1.22 µM, above 30 µM and 18.5 µM, respectively.
